Values of other authors, collected in patent US20140171466A1, “PAIN MANAGEMENT IN SICKLE CELL ANEMIA” (priority 2012, published 2014).
“Also recorded” adds a separate entry of the source. Read-outs that look alike come from different tables or passages of the source.

Tests used:
mice = details: systemically administered
nonhuman primates = details: systemic administration
[1] = compound on its own
[2] = in vivo

For `O=C1NCN(c2ccccc2)C12CCN(C1CCC3CCCc4cccc1c43)CC2` (stereo in doubt) [Compound 7, ((1 S,3aS)-8-(2,3,3a,4,5,6-hexahydro-1H-phenalen-1-yl)-1-phenyl-1,3,8-triaza-spiro[4.5]decan-4-one)], which “morphine conditioned place preference (CPP)” value (mice) is on record?
The value was “block morphine conditioned place preference (CPP)”.

And the spinal anti-nociceptive action (nonhuman primates)?
Its spinal anti-nociceptive action is “spinal anti-nociceptive action of NOP agonists has been confirmed”.

What does the source list for `CCCCCCC(C)(C)c1ccc([C@@H]2C[C@H](O)CC[C@H]2CCCO)c(O)c1` [CP 55,940]?
hyperalgesia (BERK sickle mice; low dose 0.3 mg/kg): attenuated hyperalgesia; deep hyperalgesia incited by H/R (BERK mice): ameliorated

For `O=C1Cc2ccccc2N1C1CCN(C2CCCCCCC2)CC1` [Compound 3, 1-(1-cyclooctylpiperidin-4-yl)-indolin-2-one], which “reward in the CPP paradigm” value [1] is on record?
Its value is “not rewarding on its own”.

Which anxiolytic effects [2] does the source give for `CC1(N2CCC(n3c([C@@H]4CCCNC4)nc4ccccc43)CC2)CCCCCCC1` [Compound 10, 1-[1-(1-methylcyclooctyl)-4-piperidinyl]-2-[(3R)-3-piperidinyl]-1H-benzimidazole] here?
Its anxiolytic effects is “exhibits anxiolytic effects”.

What about the “effect on memory or locomotion” value [2] of the same compound?
Its value is “no effect on memory or locomotion”.

Which hyperalgesia (BERK sickle mice; high dose 20 mg/kg, 20 mg/kg) does the source give for `CN1CC[C@]23c4c5ccc(O)c4O[C@H]2[C@@H](O)C=C[C@H]3[C@H]1C5` [morphine] here?
The hyperalgesia was “effective; also recorded: markedly attenuated”.
